These results are taken from patent US10463664B2, “Inhibitors of HSV nucleotidyl transferases and uses therefor” (Saint Louis University, priority 2013, dated 2019).

The test system of one data set is HCMV strain AD169. In words: Anti-HCMV CPE inhibition assay (crystal violet) in HFFs. The note with it: 14 days; for EC50: read-out: EC50 against HCMV, CPE inhibition assay. Format: cell-based, human cytomegalovirus. Here is the method: Anti-HCMV CPE inhibition and cytotoxicity assays. HFFs were infected with HCMV strain AD169 in the presence of serial dilutions of the compounds from 0.0192 to 60 μM. Fourteen days later the monolayers were stained with crystal violet, and retained cell density was quantified using a multiplate autoreader (BioTek). Cytotoxicity was measured the same way, except that the cells were uninfected and neutral red internalization by viable cells was measured.
Antiviral efficacy against HCMV. The ability of select HSV inhibitors to inhibit replication of another major human herpesvirus pathogen, human cytomegalovirus (HCMV) (65) was tested. This was based on the inhibitors strong suppression of HSV-1 and HSV-2 and the prediction that other members of the herpesvirus family would be sensitive to NTS inhibitors due to their shared DNA replication mechanism. Compounds #41, 46, 49, 55, 56, and 59 and the FDA-approved anti-HCMV drug ganciclovir were evaluated with crystal violet CPE and neutral red toxicity assays in HFFs. HFFs were infected with HCMV in the presence of serial dilutions of the compounds that were most inhibitory for HSVs. After 14 days the monolayers were stained and cell density was determined by OD reading. Compound cytotoxicity for uninfected cells was determined in the same manner except that neutral red uptake by viable cells was measured. […] The TI values for the four NTS inhibitors of HCMV ranged from 4 for compound #41 to 38 for #56. Therefore, NTS inhibitors can suppress HCMV replication in addition to inhibiting the HSVs.

For data set [1], the system named is primary human foreskin fibroblasts. In words: in vitro. The method in brief:
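Primary HFF, 1.0×10^4/well, exposed 24 h to 0.78–100 μM compound in 1% DMSO. Viability read by MTT (0.25 mg/mL, 60 min, 570 nm) and by protease-release lysis luminescence. CC50 by non-linear fit of percent viability.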

The subject of a further data set is HFFs. Briefly: Neutral red cytotoxicity assay in HFFs (10 day, with plaque reduction assay). The format is cell-based, human. As to conditions: 10 day assay. Here is the method: HCMV plaque reduction EC50 and toxicity assays. Low passage primary HFFs were infected with HCMV strain AD169 in the presence of serial dilutions of the compounds from 0.032 to 100 μM. Ten days later the monolayers were stained with 1% neutral red solution in PBS. After rinsing, plaques were counted using a stereomicroscope and the EC50 was interpolated from the data. Cytotoxicity was measured using a plate-based assay in which compounds were added to HFFs at 0.032 to 100 μM. At the end of the incubation period, plates were stained for 1 h with a neutral red solution in PBS. The stain was then removed, the plates rinsed in PBS and dried, and dye internalized by viable cells was determined at OD550. CC50 values were interpolated from the data.
Compounds #41, 46, 49, 55, 56, and 59 and the FDA-approved, anti-HCMV drug ganciclovir were subsequently evaluated with plaque reduction and toxicity assays in HFFs. HFFs were infected with HCMV in the presence of serial dilutions of the compounds. After 10 days the cultures were stained with neutral red and plaques were counted. Compound cytotoxicity for uninfected cells was determined in the same manner except that neutral red uptake by viable cells was measured by optical density. […] The TI values for the five NTS inhibitors of HCMV ranged from 5 for compound #46 to 17 for #55 and 59. Therefore, NTS inhibitors can suppress HCMV replication in addition to inhibiting the HSVs.
(In general: In a plaque reduction assay, fewer plaques than in the control indicate reduced infectivity or spread.)

The subject of a further data set is Vero cells. In words: MTT mitochondrial toxicity assay in Vero cells. Format: cell-based. The note with it: 24 h; read-out: Vero cell toxicity MTT CC50. (Tetrazolium assays rely on reduction of a dye to a coloured formazan, in cell work by metabolically active cells.)
For data set [2], the system named is TK-deficient mutant of HSV-2 strain 333, ΔTK-. In words: Replication inhibition of thymidine kinase-deficient HSV-2 mutant in Vero cells. The format is cell-based, herpes simplex virus 2. As to conditions: 50 μM, 24 h. How it is done:
Cells and Viruses. Vero cells were maintained in Dulbecco's modified Eagle's medium (DMEM) containing 3% newborn calf serum, 3% bovine growth serum, 2 mM L-glutamine and 100 IU/mL penicillin and 0.1 mg/mL streptomycin (P/S). Primary human foreskin fibroblasts (ATCC #CRL2429™) were cultured in DMEM containing 10% FBS, 2 mM L-glutamine plus P/S, and used at passage 3 to 12. HSV-1 #6 and HSV-2 #1 are de-identified clinical isolates from the Saint Louis University Hospital. Stocks were prepared after a single passage in cell culture and were titered by standard plaque assay (Knipe and Spang, 1982). Wild-type HSV-1 and HSV-2 used in FIG. 6 were laboratory strains 17 and 333, respectively. The HSV-1 TK-deficient mutant, ΔTK contains a 361-bp deletion between the BglII-SmaI restriction enzyme sites in the UL23 open reading frame of strain 17 (Korom, et al., 2013). The TK-deficient mutant of HSV-2 strain 333, ΔTK-, contains a 180-bp KpnI-KpnI deletion in the UL23 open reading frame that abrogates TK activity (McDermott, et al, 1984). ΔTK- was the generous gift of Jim Smiley. Virus stocks were grown and titered on Vero cells (Morrison and Knipe, 1996).
Inhibition of acyclovir-resistant HSV-1 and HSV-2 mutants. […] HSV TK-deficient mutants are therefore insensitive to ACV. […] Vero cells were infected with laboratory strains of HSV-1 or HSV-2 and engineered TK-deficient mutants of the same strains. […] Similar patterns were seen when the compounds were used at 5 μM (FIG. 8B), although inhibition by compound #30 at 5 μM was too low to definitively interpret.

For the next data set, the system named is HSV-1. Briefly: Topical treatment of mice infected with HSV-1 on the cornea. Format: in vivo. As to conditions: for Body weight post-infection: 1 μg three times daily for 5 days. Here is the method:
Compounds were administered at 1 μg/eye in 10% DMSO. Two mice were treated with 10% DMSO as a negative control. The corneal surface was swabbed once per day on days 1, 2, 4 and 5 post-infection and titer of virus shed from the epithelium was determined by standard plaque assay. On the fifth day post-infection mice were euthanized and the trigeminal ganglia (TG) and brainstems were dissected. The tissues were disrupted and virus in them quantified by plaque assay. […] Weight of individual mice was recorded daily. […] Saline was a negative control. On the fifth day post-infection mice were euthanized and the trigeminal ganglia (TG) and brainstems were dissected. The tissues were disrupted and virus in them quantified by plaque assay.
Body weight was monitored daily post-infection as a sensitive indicator of overall health (FIG. 12).
Infected mice treated with saline served as a negative control.

The mark [3] stands for this setting: 1 μg/eye once daily, compared with DMSO control.
[4] abbreviates: 7.5 μg/eye three times per day, BALB/c mice, versus saline control.

Each structure is given as a SMILES string. Like-named read-outs stand apart in the source and are kept apart here.

One may read the EC50 as the concentration needed to bring the measured effect to its halfway point. As to `C=C(C)C1CCc2c(c(C)cc(O)c(=O)c2O)C1` (stereo not shown) [Compound 56, Manicol], the “EC50 against HCMV, CPE inhibition assay” value in the data set on HCMV strain AD169 is “very low μM range”. Besides, the EC50 with HCMV strain AD169 is 38.4 µM. Moreover, the figures for the CC50 (in data set [1]; in the data set with HFFs; with Vero cells) were greater than 100 µM, 6.7 µM and greater than 100 µM, respectively.

On to `CC(C)=CCc1ccc(O)c(=O)cc1C(C)C` [Compound 49, Nootkatin], for which, in the data set on HCMV strain AD169, the “EC50 against HCMV, CPE inhibition assay” value is given as “very low μM range”. Also, in the data set with HCMV strain AD169, the EC50 stood at 1.7 µM. Also, the CC50 in data set [1] is greater than 100 µM; in the data set with HFFs, 6.7 µM; with Vero cells, greater than 100 µM.

As for `CCOc1ccc(-c2c3cc(O)c(=O)cc-3oc3cc(O)c(O)cc23)cc1` [Compound 30], the CC50 (in data set [1]; in the data set on Vero cells) was greater than 100 µM each time. Further, the “Inhibition of TK-mutant HSV-2 (in words)” value in data set [2] was “efficiently inhibited”.

Take `CC(C)c1ccc(O)c(=O)c(O)c1` [Compound 46, Beta-thujaplicinol]: in the data set with HCMV strain AD169, the “EC50 against HCMV, CPE inhibition assay” value is on record as “very low μM range” and the EC50 was determined as 1.4 µM. Further, the CC50 in data set [1] was greater than 100 µM. The compound further registered a CC50 in the data set on HFFs of 6.7 µM. In addition, in the data set with Vero cells, the CC50 is greater than 100 µM. The Body weight post-infection result in the data set on HSV-1 is listed as “maintained their weight through 8 days post-infection”. Besides, in the data set with HSV-1 (setting [3]), the “Virus in the TG at 5 days post-infection” value is on record as “significantly reduced”, the “Virus in the brainstem at 5 days post-infection” value is “significantly reduced” and the “Virus shed in the tear film” value is recorded as “transiently reduced”. For the same compound, in data set [2], the “Inhibition of TK-mutant HSV-2 (in words)” value is recorded as “efficiently inhibited”.

Regarding `Nc1nc2c(ncn2COCCO)c(=O)[nH]1` [ACV, Acyclovir, reference compound], in the data set with HSV-1, the Body weight post-infection entry was “maintained their weight through 8 days post-infection”. Also, in the data set on HSV-1 (setting [3]), the “Virus in the TG at 5 days post-infection” value was “significantly reduced” and the “Virus shed in the tear film” value is “transiently reduced”. Also, the “Titers of virus in the TG on day 5 post-infection” value in the data set with HSV-1 (setting [4]) is given as “reduced to a similar extent”. The “Inhibition of TK-mutant HSV-2 (in words)” value in data set [2] is “little effect”.

Regarding `CC(=O)NC(CCc1ccc(Cl)c(Cl)c1)c1cccc(O)c(=O)c1` (stereo not shown) [Compound 55], the EC50 with HCMV strain AD169 was greater than 60 µM. Also, the CC50 in data set [1] was greater than 100 µM; in the data set on HFFs, 8 µM; in the data set on Vero cells it was greater than 100 µM.

In the case of `Cc1cc(C2CCCCC2)n(O)c(=O)c1` [Compound 41, Ciclopirox, reference compound], in the data set with HCMV strain AD169, the “EC50 against HCMV, CPE inhibition assay” value is on record as “very low μM range”. For the same compound, the EC50 with HCMV strain AD169 (Human betaherpesvirus 5, AD169, 336 h) is 2.1 µM. Besides, in the data set on HSV-1 (setting [4]), the “Titers of virus in the TG on day 5 post-infection” value was “lower” and the “Titers of virus in the brainstem on day 5 post-infection” value is “lower”. Moreover, in data set [2], the “Inhibition of TK-mutant HSV-2 (in words)” value was “efficiently inhibited”.
